Measured values published in patent publication US12370167B2, “Blood-brain barrier permeability regulator and use thereof” (ZHEJIANG UNIVERSITY, priority 2019, dated 2025).

Assays:
[1] = test system: VEGF mRNA in U87 MG cells; test: Down-regulation of tumor cell VEGF mRNA expression, qt-PCR; assay type: cell-based; conditions: paclitaxel 0.5 μg/mL, siRNA 100 nM, 48 hours, ΔΔCt method, n=3
Description: FIG. 2: In vitro down-regulation of expression of U87 MG cell VEGF mRNA by the Angiopep-2-modified glycolipid nano-delivery system. 2 mL suspensions of well-grown U87 MG glioma cells were inoculated into a 6-well plate at a density of 4×10^5/well. After adherent growth of the cells, an Angiopep-2-modified glycolipid nano-delivery system was added, with paclitaxel at a concentration of 0.5 μg/mL and the siRNA at a concentration of 100 nM. The incubation was carried out for 48 hours. An untreated group was used as the blank control. The RNA in the cells was extracted with TRIzol. The relative expression level of tumor cell VEGF mRNA was measure with qt-PCR and calculated with a ΔΔCt method (n=3).
The Angiopep-2-modified glycolipid nano-delivery system was obtained according to the procedures as described in the above sections of 1 and 2. 2.0 mL suspensions of well-grown U87 MG cells were inoculated into a 6-well plate at a density of 4×10^5/well, and were incubated at 37° C. and 5% CO2 until the cells adhere. The Angiopep-2-modified glycolipid nano-delivery system was added, with paclitaxel at a concentration of 0.5 μg/mL and the siRNA at a concentration of 100 nM. The incubation was carried out for 48 hours. The untreated cells were used as a blank control. Each of the group was repeated 3 times. The tumor cell VEGF expression level was measured with qt-PCR.

U87 MG glioma cells = test: Cytotoxicity on U87 MG glioma cells, tetrazolium blue colorimetric method; assay type: cell-based; conditions: paclitaxel 0.5 μg/mL, siRNA 100 nM, 48 hours
Description: FIG. 1: In vitro cell inhibition rate against U87 MG glioma cells of the Angiopep-2-modified glycolipid nano-delivery system. 200 μL suspensions of well-grown U87 MG glioma cells were inoculated into a 96-well plate at a density of 5×10^3/well. After adherent growth of the cells, an Angiopep-2-modified glycolipid nano-delivery system was added, with paclitaxel at a concentration of 0.5 μg/mL and the siRNA at a concentration of 100 nM. The untreated cells were used as a blank control. The cell growth inhibition rate was measure with a tetrazolium blue colorimetric method (n=3).
U87 MG glioma cells were used as the model cell to assess the growth inhibitory effect of the Angiopep-2-modified glycolipid nano-delivery system on tumor cells with a tetrazolium blue colorimetric method. The Angiopep-2-modified glycolipid nano-delivery system was obtained according to the procedures as described in the above sections of 1 and 2. 200 μL suspensions of well-grown U87 MG cells were inoculated into a 96-well plate at a density of 5×10^3/well, and were incubated at 37° C. and 5% CO2 until the cells adhere. The Angiopep-2-modified glycolipid nano-delivery system was added, with paclitaxel at a concentration of […] and the siRNA at a concentration of 100 nM. The untreated cells were used as a blank control. […] Absorbance at 570 nm was measured with a microplate reader. […]

Compound	expression level of VEGF mRNA (relative) [1] [%]	inhibition at 0.5 µg/mL (U87 MG glioma cells; Homo sapiens, U-87 MG, n=3, read-out: cell inhibition rate) [%]	cell inhibition rate (U87 MG glioma cells; n=3) [%]
CC(=O)O[C@H]1C(=O)[C@@]2(C)[C@H]([C@H](OC(=O)c3ccccc3)[C@]3(O)C[C@H](OC(=O)[C@H](O)[C@@H](NC(=O)c4ccccc4)c4ccccc4)C(C)=C1C3(C)C)[C@]1(OC(C)=O)CO[C@@H]1C[C@@H]2O [paclitaxel]	78.5	18.7 ± 5.4	
siRNA: siRNA, sense strand 5′-GUCUAUCAGCGCAGCUACUTT-3′ (SEQ ID NO: 1), antisense strand 5′-AGUAGCUGCGCUGAUAGACTT-3′ (SEQ ID NO: 2) (sense GUCUAUCAGCGCAGCUACUNN; antisense AGUAGCUGCGCUGAUAGACNN; listed as RNA, chemistry not given here)	92.9		5.5±0.5
